The values that follow come from the NIST ThermoML archive (doi:10.1016/j.fluid.2007.02.026).

For data set [1] the following is noted: Liquid; for mass density: 101.33 kPa.
Data set [2] is described as follows: refractive index (Na D-line) (dimensionless). Particulars: 101.33 kPa, Liquid, Standard Abbe refractometry.

SMILES strings stand for the structures. ± gives the expanded uncertainty stated by the source.

For orientation: mass density means the mass of a sample divided by its volume. What is called vapor or sublimation pressure is the pressure of vapour in equilibrium with the condensed phase. As a reminder, the refractive index is the speed of light in vacuum divided by its phase velocity in the sample. With `N#Cc1cnccn1` [2-cyanopyrazine], the mass density in data set [1] (293.15 K) is reported as 1174 ± 1.8 kg/m3. Moreover, the “vapor or sublimation pressure” value in data set [1] (476.15 K) is 95.1 ± 5 kPa. Also, in data set [2] (293.15 K), the refractive index was found to be 1.534 ± 0.0007.

For `COc1ccccc1` [anisole], the mass density in data set [1] (298.15 K) was 989.3 ± 1.5 kg/m3. For the same compound, the “vapor or sublimation pressure” value in data set [1] (424.45 K) turned out to be 95.1 ± 5 kPa. The refractive index in data set [2] (298.15 K) was 1.5142 ± 0.0007.

For `CCC(C)=O` [butanone], in data set [1] (298.15 K), the mass density turned out to be 799.8 ± 1.2 kg/m3. In data set [1] (350.95 K), the “vapor or sublimation pressure” value was 95.1 ± 5 kPa. Also, in data set [2] (298.15 K), the refractive index is 1.3769 ± 0.0007.

With `CCCCCCCCCC` [decane], the mass density in data set [1] (298.15 K) was determined as 726.4 ± 1 kg/m3. In addition, the “vapor or sublimation pressure” value in data set [1] (444.95 K) amounted to 95.1 ± 5 kPa. The refractive index in data set [2] (298.15 K) is 1.4097 ± 0.0007.

In the case of `CC(C)OC(C)C` [diisopropyl ether], in data set [1] (298.15 K), the mass density is on record as 718.5 ± 1 kg/m3. For the same compound, the “vapor or sublimation pressure” value in data set [1] (339.65 K) came out at 95.1 ± 5 kPa. The refractive index in data set [2] (298.15 K) is recorded as 1.3654 ± 0.0007.

Consider `CN(C)C=O` [dimethylformamide], for which the mass density in data set [1] (298.15 K) is given as 943.9 ± 1.4 kg/m3. Besides, the “vapor or sublimation pressure” value in data set [1] (420.85 K) and in data set [1] (420.95 K) was 95.1 ± 5 kPa in each case. Besides, the refractive index in data set [2] (298.15 K) was determined as 1.4282 ± 0.0007.

In the case of `CCCCCCCC` [octane], in data set [1] (298.15 K), the mass density came to 698.6 ± 1 kg/m3. Also, the “vapor or sublimation pressure” value in data set [1] (391.15 K) was found to be 95.1 ± 5 kPa.
